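Exposure lasted 48 hours, with cells grown in 96-well plates and compounds tested at five concentrations. GI50: concentration for 50% inhibition of growth.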 Calls of active or inactive are those of the source. Rule as the data show it: active = GI50 up to about 1.1 µM and inactive = higher.
Key:
Assay in all cases: growth of human tumour cells (NCI), 48 h
RXF 393 = tested on: RXF 393
NCI-H23 = tested on: NCI-H23
NCI-H460 = tested on: NCI-H460
HCT-15 = tested on: HCT-15
SF-295 = tested on: SF-295
PC-3 = tested on: PC-3
A549 = tested on: A549
OVCAR-5 = tested on: OVCAR-5
COLO 205 = tested on: COLO 205
LOX IMVI = tested on: LOX IMVI
MOLT-4 = tested on: MOLT-4
HCT-116 = tested on: HCT-116
SW-620 = tested on: SW-620
786-0 = tested on: 786-0
OVCAR-4 = tested on: OVCAR-4
DMS-273 = tested on: DMS-273
CAKI-1 = tested on: CAKI-1
LXFL 529 = tested on: LXFL 529
DU-145 = tested on: DU-145
SF-268 = tested on: SF-268

Structure (SMILES)	GI50 (RXF 393)	GI50 (NCI-H23)	GI50 (NCI-H460)	GI50 (HCT-15) [µM]	GI50 (SF-295)	GI50 (PC-3)	GI50 (A549)	GI50 (OVCAR-5)	GI50 (COLO 205)	GI50 (LOX IMVI)	GI50 (MOLT-4)	GI50 (HCT-116)	GI50 (SW-620)	GI50 (786-0)	GI50 (OVCAR-4)	GI50 (DMS-273)	GI50 (CAKI-1)	GI50 (LXFL 529)	GI50 (DU-145)	GI50 (SF-268)
N/C(S)=N/N=C/c1ncccc1O	0.843 µM (active)	0.597 µM (active)	1.29 µM (inactive)	1.5	0.766 µM (active)	2.97 µM (inactive)	2.32 µM (inactive)	3.1 µM (inactive)	2.83 µM (inactive)	0.925 µM (active)	0.787 µM (active)	1.76 µM (inactive)	1.64 µM (inactive)	1.16 µM (inactive)	2.96 µM (inactive)	0.508 µM (active)	0.927 µM (active)	2.75 µM (inactive)		
O=C1C(Br)=C(c2ccccc2)C(c2ccccc2)=C1c1ccccc1	1.99 µM (inactive)	3.64 µM (inactive)	4.83 µM (inactive)	1.76	10.9 µM (inactive)	4.1 µM (inactive)	13.1 µM (inactive)	12 µM (inactive)	1.87 µM (inactive)	1.33 µM (inactive)	0.601 µM (active)	1.9 µM (inactive)	1.77 µM (inactive)	1.95 µM (inactive)	1.99 µM (inactive)	1.79 µM (inactive)	2.44 µM (inactive)	1.5 µM (inactive)	13.2 µM (inactive)	3.44 µM (inactive)
CC(=O)c1ccc(NC(=O)/C(Cc2ccccn2)=N/NC(=O)C[N+](C)(C)C)cc1	> 100 µM (inactive)	> 100 µM (inactive)	> 100 µM (inactive)	> 100	> 100 µM (inactive)		> 100 µM (inactive)	> 100 µM (inactive)	> 100 µM (inactive)	> 100 µM (inactive)	> 100 µM (inactive)	> 100 µM (inactive)	> 100 µM (inactive)	> 100 µM (inactive)	> 100 µM (inactive)	> 100 µM (inactive)	> 100 µM (inactive)	> 100 µM (inactive)		> 100 µM (inactive)
FC(F)(F)P1C2C=CC(CC2)C1(F)F (stereo not drawn)	> 100 µM (inactive)	> 100 µM (inactive)	> 100 µM (inactive)	> 100	> 100 µM (inactive)		> 100 µM (inactive)	> 100 µM (inactive)	> 100 µM (inactive)	> 100 µM (inactive)	> 100 µM (inactive)	> 100 µM (inactive)	63.2 µM (inactive)	> 100 µM (inactive)	> 100 µM (inactive)	> 100 µM (inactive)	> 100 µM (inactive)	> 100 µM (inactive)		> 100 µM (inactive)
CCc1cccc(C(C)C)c1NC(=O)/C(=N\NC(N)=O)C(C(=O)OC)c1cnc2ccccc2n1 (stereo not drawn)	50 µM (inactive)	24.8 µM (inactive)	31.6 µM (inactive)	39.2	58.5 µM (inactive)		24.8 µM (inactive)	> 100 µM (inactive)	20.9 µM (inactive)	34.8 µM (inactive)	32.9 µM (inactive)	24.2 µM (inactive)	39.5 µM (inactive)	60.8 µM (inactive)	87.7 µM (inactive)	31.6 µM (inactive)	> 100 µM (inactive)	52.4 µM (inactive)		> 100 µM (inactive)
COC(=O)C1=C(c2ccc3c(c2)OCO3)OC(c2cc(OC)c(OC)c(OC)c2)C1 (stereo not drawn)	2.81 µM (inactive)	3.21 µM (inactive)	3.49 µM (inactive)	0.664	1.5 µM (inactive)		5.77 µM (inactive)	> 100 µM (inactive)	1.2 µM (inactive)	5.68 µM (inactive)	6.44 µM (inactive)	2.88 µM (inactive)	0.557 µM (active)	3.61 µM (inactive)	4.83 µM (inactive)	1.89 µM (inactive)	2.12 µM (inactive)	4.79 µM (inactive)		31.6 µM (inactive)
Cc1nn(C)c(=O)c2nn(-c3ccccc3)c(C)c12	> 100 µM (inactive)	> 100 µM (inactive)	> 100 µM (inactive)	> 100	> 100 µM (inactive)		> 100 µM (inactive)	> 100 µM (inactive)	> 100 µM (inactive)	> 100 µM (inactive)	> 100 µM (inactive)	> 100 µM (inactive)	> 100 µM (inactive)	> 100 µM (inactive)	> 100 µM (inactive)	> 100 µM (inactive)	> 100 µM (inactive)	> 100 µM (inactive)		> 100 µM (inactive)
